Test results from US20190183939A1, “CELL THERAPY USING MIDBRAIN-TYPE NEURAL STEM CELLS TREATED WITH VITAMIN C” (INDUSTRY-UNIVERSITY COOPERATION FOUNDATION HANYANG …, priority 2017, published 2019).

Legend:
[1] = test system: global 5hmC/5mC and H3K27m3/H3K9m3 levels in VM-NSCs; assay: Global epigenetic code determination (dot blot, western blot, immunocytochemistry); type: cell-based, rat
Experimental: Cultured cells and cryosectioned brain slices were fixed with 4% paraformaldehyde (PFA), and blocked for 40 minutes in blocking solution (Blocking solution: 1% BSA+0.3% Triton X-100). For 5hmC and 5mC staining, the fixed cells were incubated with 2 N HCl for 20 minutes before the blocking reaction. The samples were incubated overnight at 4° C. in the blocking solution containing the primary antibodies listed in Supplemental Table 1. Secondary antibodies tagged with Alexa 488 (1:200, Invitrogen, Carlsbad, Calif.) and Cy3 (1:200, Jackson Immunoresearch Laboratories, West Grove, Pa.) were applied. Stained samples were mounted in Vectashield medium containing 40,6-diamidino-2-phenylindole (DAPI; Vector Laboratories, West Grove, Pa.) and analysed under an epifluorescence (Leica, Wetzlar, Germany) or confocal microscope (Leica TSP SP5).
DNA dot blot analysis for 5hmC/5mC was performed as described in the following reference. [He, X. B., Kim, M., Kim, S. Y., Yi, S. H., Rhee, Y. H., Kim, T., Lee, E. H., Park, C. H., Dixit, S., Harrison, F. E., et al. (2015). Vitamin C facilitates dopamine neuron differentiation in fetal midbrain through TET1- and JMJD3-dependent epigenetic control manner. Stem Cells 33, 1320-1332]. Briefly, genomic DNA was extracted and quantified. Genomic DNA (80 ng) was spotted on nitrocellulose membranes, air dried, and exposed in UV for 20 minutes. After blocking with 5% bovine serum albumin (BSA)/Tris-buffered saline-Tween 20 at room temperature for 2 hours, the membrane was incubated in anti-5hmC (Active Motif, Carlsbad, Calif.) and anti-5mC (Abcam, Cambridge, UK) antibodies at 4° C. overnight. Western-blots for determining global histone modification changes were performed as described in the following reference. [Rumbaugh, G., and Miller, C. A. (2011). Epigenetic changes in the brain: measuring global histone modifications. Methods Mol Biol 670, 263-274]. […] Positive bands were detected and captured by ChemiDoc (Bio-Rad, Hercules, Calif.), and the intensities of the bands were quantified using ImageJ software (http://imagej.nih.gov/ij).

Nurr1 and TH promoters = assay: DIP-qPCR and ChIP-qPCR on Nurr1 and TH promoters; type: cell-based, rat
From the text: Foxa2 and Nurr1 binding sites were identified using the Jaspar database (http://jaspar.genereg.net/) using an 80% score threshold. Predicted Foxa2 and Nurr1 binding sites were coupled with phylogenetic footprinting to eliminate spurious predictions with specified position weight matrix (PWM) settings, as described in the following reference. [Sandelin, A., and Wasserman, W. W. (2004). Constrained binding site diversity within families of transcription factors enhances pattern discovery bioinformatics. Journal of molecular biology 338, 207-215] (Table 2). ChIP and DIP assays were carried out as described in the following reference. [Prolonged membrane depolarization enhances midbrain dopamine neuron differentiation via epigenetic histone modifications. Stem Cells 29, 1861-1873]. Briefly, chromatin or genomic DNA was sheared to an average of 200-500 bp in length using a sonication Bioruptor (BMS, Seoul, Korea) and immunoprecipitated using the antibodies listed in Table 1. Immunoprecipitated DNA fragments were collected using magnetic beads (Invitrogen), purified, and subjected to real-time PCR using the primers listed in Table 3. The comparative cycle threshold method was used to quantify the results. Data were normalized to the input DNA.

[2] = test system: human NSCs derived from hESCs (H9); assay: VC treatment in human NSC cultures derived from hESCs (H9); type: cell-based
Experimental: NSCs were cultured from rat embryo VMs (Sprague Dawley) at embryonic day 12 (E12) on 6-cm dishes or 24-well plates pre-coated with 15 μg/ml poly-L-ornithine (PLO; Sigma)/1 ug/ml fibronectin (FN; Sigma, St. Louis, Mo.) in serum-free N2 medium. NSCs were induced to proliferate by the mitogenic action of basic fibroblast growth factor (bFGF, 20 ng/ml, R&D Systems, Minneapolis, Minn.). The proliferating VM-NSCs cultured in 6-cm dishes were passaged at every 4th day in mitogen-supplemented medium with or without Vitamin C (VC; Sigma; 200 μM), glutathione reduced form (GSH; Sigma; 200 μM), vitamin E (alpha-tocopherol; Sigma; 200 μM), or N-acetylcysteine (NAc; Sigma; 100 μM). The expanded NSCs at the last day of each passage were induced to differentiate by withdrawing the mitogen and antioxidants from the media (for 2-16 days). Human NSC cultures were derived by in vitro differentiation of hESCs (H9) and cultured as described in the following reference. [Rhee, Y. H., Ko, J. Y., Chang, M. Y., Yi, S. H., Kim, D., Kim, C. […] The human NSCs were expanded in ITS media supplemented with bFGF (20 ng/ml) in the presence or absence of VC for two NSC passages. Differentiation of the passaged human NSCs was induced by withdrawal of bFGF and VC in ITS supplemented with brain-derived neurotrophic factor (20 ng/ml; R&D Systems), glial cell line derived neurotrophic factor (20 ng/ml; R&D Systems), and dibutyryl cAMP (0.5 mmol/1; Sigma). Cultures were maintained at 37° C. in humidified 5% CO2 incubators.
The cell growth profile during NSC expansion with several cell passages was generated by counting the number of viable cells at the end of each passage. Cell expansion of each NSC passage was further estimated by the population doubling level (PDL, the level at which the number of cells is doubled), which was determined by log(N/NO)/log 2 (where N is the number of cells at the end of each passage; NO is the number of cells plated initially (1×10^5 cells/cm^2)). DA neuronal cell survival in the absence or presence of toxic insults (500-1000 uM of H2O2 or 6-OHDA) was determined by counting viable TH^+ cells after staining. General cell death and DNA damage were estimated by ethidium heterodimer 1 (EthD1) (Molecular Probes) and γH2AX staining, respectively.
To estimate morphological maturation, total fiber lengths emanating from TH+DA neuronal cells were measured. The pre-synaptic activity of DA neurons was determined by measuring the levels of DA neurotransmitter released in the differentiated VM-NSC cultures. Media incubated for 2 days (differentiation day 13-15) were collected and used in the DA level determinations using an ELISA kit (BA E-5300, LDN). […] The evoked DA release was calculated by subtracting the DA release without KCl from the DA level with KCl.

## O=C1O[C@H]([C@@H](O)CO)C(O)=C1O [VC, L-ascorbic acid]
[1]; D0
  global 5mC levels: significant decrease
  global levels of H3K27m3 and H3K9m3: reduced
[1]; D0, immunoblotting and immunocytochemical analyses
  global 5hmC levels: greatly increased
Nurr1 and TH promoters; ChIP-qPCR, D6
  Nurr1 protein abundance at TH promoter: significantly greater
Nurr1 and TH promoters; D2, culture pre-treated with VC
  Foxa2 recruitment to Nurr1 promoter regions: more abundantly recruited
Nurr1 and TH promoters; from D0, compared to untreated controls
  5hmC/5mC and H3K27m3/H3K9m3 at Nurr1 promoter regions: increased 5hmC levels with 5mC decreases and the decrease of H3K27m3/H3K9m3
[2]; VC-treated human NSCs, D6
  TH+ DA neuronal yields: significantly enhanced
[2]; compared to untreated control cultures, D15
  neurite branching of TH+ cells: more extensive neurite branching
[2]; hESC-NSC cultures, VC during proliferation, D6
  differentiating/differentiated cell survival: greatly promoted
[2]; qRT-PCR
  TH mRNA expression: increase
